# Read-outs that look alike come from different tables or passages of the source. Positions of bridges follow the written chain, without caps; N, C: chain ends. Non-standard residues stand in square brackets, D forms with d. Residues, ends and D or L forms follow the SMILES beside them. Groups on a side chain read outwards from the residue. *: point of attachment. DOTA = O=C(O)CN1CCN(CC(=O)O)CCN(CC(=O)*)CCN(CC(=O)O)CC1; 2Nal = N[C@@H](Cc1ccc2ccccc2c1)C(=O)O; Lys(iPr) = CC(C)NCCCC[C@H](N)C(=O)O
# Tests used:
# Assay type in all cases: in vivo
# [1] = system: Jeko1 mantle cell lymphoma xenografts; assay: Biodistribution in Jeko1 tumor-bearing mice
# Procedure: (§1) For Daudi, Z138, GRANTA519 and Jeko1 xenografts, male NOD.Cg-Rag1^tm1MomII2rg^tm1Wjl/SzJ (NRG) mice were subcutaneously inoculated on the left flank with 5×10^6 cells (100 μL; 1:1 ratio of PBS/Matrigel) and tumors were grown to a size of 200-500 mm^3. For PC-3 xenografts, male NOD.Cg-Rag1^tm1MomII2rg^tm1Wjl/SzJ (NRG) mice were subcutaneously inoculated on the left flank with 5×10^6 PC-3 cells (100 μL; 1:1 ratio of PBS/Matrigel) and tumors were grown to a size of 200-400 mm^3.
# (§2) The mice were euthanized via CO2 inhalation while anesthetized with isoflurane. Tissues were harvested, washed in PBS, blotted dry, weighed, and measured on a Hidex AMG Automatic Gamma Counter.
# [2] = Biodistribution in GRANTA519 tumor-bearing mice; conditions: male, NOD.Cg-Rag1^tm1MomII2rg^tm1Wjl/SzJ (NRG), mouse, iv, total radioactivity, GRANTA519
# Procedure: as §1, §2
# [3] = system: GRANTA519 mantle cell lymphoma xenografts; assay: Biodistribution in GRANTA519 tumor-bearing mice; conditions: GRANTA519
# Procedure: as §1, §2
# [4] = 1 h blocked (7.5 μg LY2510924 i.p.)
smiles,measurement,setting,value
"CC(C)NCCCC[C@@H]1NC(=O)[C@H](Cc2ccc(O)cc2)NC(=O)[C@H](Cc2ccccc2)NC(=O)CC[C@H](C(=O)N[C@@H](CCCCNC(C)C)C(=O)N[C@@H](CCCCNC(=O)[C@H](CCC(=O)O)NC(=O)[C@H](CCC(=O)O)NC(=O)[C@H](CCC(=O)O)NC(=O)CN2CCN(CC(=O)O)CCN(CC(=O)O)CCN(CC(=O)O)CC2)C(N)=O)NC(=O)CNC(=O)[C@H](Cc2ccc3ccccc3c2)NC(=O)[C@@H](CCCNC(=N)N)NC1=O [[^68Ga]Ga-BL02, metal not drawn] (FY[Lys(iPr)][dR][2Nal]G[dE][Lys(iPr)]K([Glu-Glu-Glu-DOTA])-NH2; lactam N-7)",Ratio Tumor: Blood,[1]; 1 h,31.30
same,Ratio Tumor: Bone,[1]; 1 h,37.23
same,Ratio Tumor: Liver,[1]; 1 h,15.41
same,Ratio Tumor: Lung,[1]; 1 h,15.76
same,Ratio Tumor: Muscle,[1]; 1 h,180.39
same,Ratio Tumor: Spleen,[1]; 1 h,19.78
same,Ratio Tumor: Blood,[1]; [4],1.74
same,Ratio Tumor: Bone,[1]; [4],8.83
same,Ratio Tumor: Liver,[1]; [4],2.59
same,Ratio Tumor: Lung,[1]; [4],1.48
same,Ratio Tumor: Muscle,[1]; [4],8.71
same,Ratio Tumor: Spleen,[1]; [4],3.10
same,tissue uptake at 1 h,"[2]; adrenals, 1 h, read-out: Biodistribution Adrenals",3.48 %ID/g
same,tissue uptake at 1 h,"[2]; adrenals, 1 h blocked (7.5 μg LY2510924 i.p.), read-out: Biodistribution Adrenals",7.4 %ID/g
same,tissue uptake at 1 h,"[2]; bone, 1 h, read-out: Biodistribution Bone",0.16 %ID/g
same,tissue uptake at 1 h,"[2]; bone, 1 h blocked (7.5 μg LY2510924 i.p.), read-out: Biodistribution Bone",0.25 %ID/g
same,tissue uptake at 1 h,"[2]; brain, 1 h, read-out: Biodistribution Brain",0.01 %ID/g
same,tissue uptake at 1 h,"[2]; brain, 1 h blocked (7.5 μg LY2510924 i.p.), read-out: Biodistribution Brain",0.02 %ID/g
same,tissue uptake at 1 h,"[2]; fat, 1 h, read-out: Biodistribution Fat",0.05 %ID/g
same,tissue uptake at 1 h,"[2]; fat, 1 h blocked (7.5 μg LY2510924 i.p.), read-out: Biodistribution Fat",0.1 %ID/g
same,tissue uptake at 1 h,"[2]; heart, 1 h, read-out: Biodistribution Heart",0.49 %ID/g
same,tissue uptake at 1 h,"[2]; heart, 1 h blocked (7.5 μg LY2510924 i.p.), read-out: Biodistribution Heart",0.53 %ID/g
same,tissue uptake at 1 h,"[2]; intestine, 1 h, read-out: Biodistribution Intestine",0.22 %ID/g
same,tissue uptake at 1 h,"[2]; intestine, 1 h blocked (7.5 μg LY2510924 i.p.), read-out: Biodistribution Intestine",0.46 %ID/g
same,tissue uptake at 1 h,"[2]; kidney, 1 h, read-out: Biodistribution Kidney",0.62 %ID/g
same,tissue uptake at 1 h,"[2]; kidney, 1 h blocked (7.5 μg LY2510924 i.p.), read-out: Biodistribution Kidney",0.81 %ID/g
same,tissue uptake at 1 h,"[2]; liver, 1 h, read-out: Biodistribution Liver",0.09 %ID/g
same,tissue uptake at 1 h,"[2]; liver, 1 h blocked (7.5 μg LY2510924 i.p.), read-out: Biodistribution Liver",0.19 %ID/g
same,tissue uptake at 1 h,"[2]; lung, 1 h, read-out: Biodistribution Lung",0.12 %ID/g
same,tissue uptake at 1 h,"[2]; lung, 1 h blocked (7.5 μg LY2510924 i.p.), read-out: Biodistribution Lung",0.25 %ID/g
same,tissue uptake at 1 h,"[2]; muscle, 1 h, read-out: Biodistribution Muscle",0.07 %ID/g
same,tissue uptake at 1 h,"[2]; muscle, 1 h blocked (7.5 μg LY2510924 i.p.), read-out: Biodistribution Muscle",0.14 %ID/g
same,tissue uptake at 1 h,"[2]; pancreas, 1 h, read-out: Biodistribution Pancreas",0.2 %ID/g
same,tissue uptake at 1 h,"[2]; pancreas, 1 h blocked (7.5 μg LY2510924 i.p.), read-out: Biodistribution Pancreas",0.34 %ID/g
same,tissue uptake at 1 h,"[2]; spleen, 1 h, read-out: Biodistribution Spleen",0.49 %ID/g
same,tissue uptake at 1 h,"[2]; spleen, 1 h blocked (7.5 μg LY2510924 i.p.), read-out: Biodistribution Spleen",0.53 %ID/g
same,tissue uptake at 1 h,"[2]; stomach, 1 h, read-out: Biodistribution Stomach",0.05 %ID/g
same,tissue uptake at 1 h,"[2]; stomach, 1 h blocked (7.5 μg LY2510924 i.p.), read-out: Biodistribution Stomach",0.12 %ID/g
same,tissue uptake at 1 h,"[2]; testes, 1 h, read-out: Biodistribution Testes",0.16 %ID/g
same,tissue uptake at 1 h,"[2]; testes, 1 h blocked (7.5 μg LY2510924 i.p.), read-out: Biodistribution Testes",0.2 %ID/g
same,tissue uptake at 1 h,"[2]; tumor (GRANTA519 xenograft), 1 h, read-out: Biodistribution GRANTA519 (tumor)",5.5 %ID/g
same,tissue uptake at 1 h,"[2]; tumor (GRANTA519 xenograft), 1 h blocked (7.5 μg LY2510924 i.p.), read-out: Biodistribution GRANTA519 (tumor)",0.72 %ID/g
same,tissue uptake at 1 h,"[2]; whole blood, 1 h, read-out: Biodistribution Blood",0.41 %ID/g
same,tissue uptake at 1 h,"[2]; whole blood, 1 h blocked (7.5 μg LY2510924 i.p.), read-out: Biodistribution Blood",0.83 %ID/g
same,Ratio Tumor: Blood,[3]; 1 h,13.83
same,Ratio Tumor: Bone,[3]; 1 h,45.39
same,Ratio Tumor: Liver,[3]; 1 h,11.28
same,Ratio Tumor: Lung,[3]; 1 h,9.12
same,Ratio Tumor: Muscle,[3]; 1 h,83.17
same,Ratio Tumor: Spleen,[3]; 1 h,15.86
same,Ratio Tumor: Blood,[3]; [4],0.94
same,Ratio Tumor: Bone,[3]; [4],4.27
same,Ratio Tumor: Liver,[3]; [4],1.37
same,Ratio Tumor: Lung,[3]; [4],0.96
same,Ratio Tumor: Muscle,[3]; [4],5.36
same,Ratio Tumor: Spleen,[3]; [4],1.78

# — US20220218852A1, “NOVEL RADIOLABELLED CXCR4-TARGETING COMPOUNDS FOR DIAGNOSIS AND THERAPY” (PROVINCIAL HEALTH SERVICES AUTHORITY, priority 2019, published 2022)
